# Measurements published in PMC5733478, “A Non-imaging High Throughput Approach to Chemical Library Screening at the Unmodified Adenosine-A3 Receptor in Living Cells” (Frontiers in Pharmacology, 2017).
# Structures can show the parent of a compound that is named as a salt.
# Target: T1, human A3AR (Homo sapiens, UniProt P0DMS8)
# T1 construct: expressed in transfected cells
# T1 sequence (P0DMS8 1-318): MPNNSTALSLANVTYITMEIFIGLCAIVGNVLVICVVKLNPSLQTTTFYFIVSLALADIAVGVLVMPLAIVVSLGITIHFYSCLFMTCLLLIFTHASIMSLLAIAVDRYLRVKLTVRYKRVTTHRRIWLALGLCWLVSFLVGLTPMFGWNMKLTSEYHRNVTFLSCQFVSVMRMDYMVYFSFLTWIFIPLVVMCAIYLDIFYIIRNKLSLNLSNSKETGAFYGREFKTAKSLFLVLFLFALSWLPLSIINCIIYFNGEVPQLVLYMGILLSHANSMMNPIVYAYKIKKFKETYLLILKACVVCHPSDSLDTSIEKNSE
# Assay: LOPAC library primary screen: single concentration (10 μM) inhibition of 25 nM CA200645 binding, PHERAstar FS
# Details: not given
row,SMILES,% 25 nM CA200645 binding
1,CN1CC[C@@]2(C)c3cc(O)ccc3N(C)[C@@H]12.O=C(O)/C=C/C(=O)O [(-)-Eseroline fumarate],105.8 ± 9.3%
2,COc1ccc2cc([C@H](C)C(=O)[O-])ccc2c1.[Na+] [(-)-Naproxen sodium],97.8 ± 4.0%
3,C=C(C)[C@H]1CC=C(C(=O)O)CC1 [(-)-Perillic acid],115.8 ± 16.6%
4,CNC(=O)Oc1ccc2c(c1)[C@]1(C)CCN(C)[C@@H]1N2C [(-)-Physostigmine],99.3 ± 6.1%
5,C[N+]1(C)[C@@H]2C[C@@H](OC(=O)[C@H](CO)c3ccccc3)C[C@H]1[C@@H]1O[C@@H]12 [(-)-Scopolamine methyl bromide],88.5 ± 14.0%
6,CCN1CCC[C@H]1CNC(=O)c1cc(S(N)(=O)=O)ccc1OC [(-)-Sulpiride],103.0 ± 8.9%
7,Cl.c1ccc([C@H]2CN3CCSC3=N2)cc1 [(-)-Tetramisole hydrochloride],112.9 ± 6.8%
8,NC/C=C/C(=O)O [(E)-4-amino-2-butenoic acid],101.5 ± 12.6%
9,"N[C@H](C(=O)O)c1cc(O)cc(O)c1 [(S)-3,5-Dihydroxyphenylglycine]",102.7 ± 20.4%
10,CC[C@@]1(O)C(=O)OCc2c1cc1n(c2=O)Cc2cc3ccccc3nc2-1 [(S)-(+)-Camptothecin],99.7 ± 12.1%
11,C[C@](N)(CCP(=O)(O)O)C(=O)O.Cl [(S)-MAP4 hydrochloride],89.0 ± 15.4%
12,CC(C)NC[C@H](O)COc1cccc2ccccc12 [(S)-Propranolol hydrochloride],100.2 ± 8.9%
13,Cl.NCCNS(=O)(=O)c1cccc2c(Cl)cccc12 [A3 hydrochloride],95.5 ± 8.6%
14,Cl.NC[C@@H]1O[C@H](c2ccccc2)Cc2c1ccc(O)c2O [A-68930 hydrochloride],95.6 ± 9.3%
15,Cl.NC[C@@H]1O[C@H](C23CC4CC(CC(C4)C2)C3)Cc2c1ccc(O)c2O [A-77636 hydrochloride],87.3 ± 8.5%
16,CCS(=O)(=O)Nc1cccc(C(=C2CCCCC2)c2cnc[nH]2)c1 [A-315456],92.6 ± 5.2%
17,"CNC(=O)[C@H]1O[C@@H](n2cnc3c(NCc4ccc(N)cc4)ncnc32)[C@H](O)[C@@H]1O [AB-MECA, reference compound]",48.5 ± 9.1%
18,Cc1cc([C@@H]2CCCN2C)on1.Cl [ABT-418 hydrochloride],101.9 ± 4.7%
19,CCCCCCCCc1ccc(-c2ccc(C(=O)O)cc2)cc1 [AC-55649],83.6 ± 13.2%
20,CC[n+]1c(/C=C/C=C2/N(C)c3ccccc3C2(C)C)sc2ccccc21.[I-] [AC-93253 iodide],89.8 ± 11.3%
21,COc1ccc(NC=O)c(C(=O)CCNC(C)=O)c1 [AFMK],100.0 ± 2.7%
22,N#C/C(=C\c1ccc(-c2cc(Cl)ccc2Cl)o1)C(=O)Nc1cccc2ncccc12 [AGK2],35.8 ± 5.6%
23,NC1(C(=O)O)CCc2cc(C(=O)O)ccc21 (centres unmarked) [AIDA],99.4 ± 5.4%

row,SMILES,% 25 nM CA200645 binding
1,O=C(O)CCC/C=C\C[C@@H]1[C@@H](/C=C/[C@H](O)C2Cc3ccccc3C2)[C@@H](F)C[C@@H]1O [AL-8810],75.0 ± 17.3%
2,CC(C)(C)c1ccc(/C=C/C(=O)Nc2ccc3c(c2)OCCO3)cc1 [AMG 9810],59.0 ± 6.4%
3,CCN(CC)c1ncnc2c1ncn2[C@@H]1O[C@H](COP(=O)([O-])OP(=O)([O-])C(Br)(Br)P(=O)([O-])O)[C@@H](O)[C@H]1O.[Na+].[Na+].[Na+] [ARL 67156 trisodium salt],103.2 ± 16.2%
4,O=C1NC(=O)/C(=C\c2ccc3nccnc3c2)S1 [AS605240],83.4 ± 13.4%
5,O=C1NC(=O)/C(=C/c2ccc3c(c2)OC(F)(F)O3)S1 [AS 604850],58.3 ± 11.4%
6,O=C1NC(=O)/C(=C/c2ccc(-c3ccc(F)cc3O)o2)S1 [AS-252424],45.8 ± 20.9%
7,CC(C)(C)c1o[nH]c(=O)c1CC(N)C(=O)O (centres unmarked) [ATPA],96.6 ± 6.2%
8,CC(C)(C)c1onc(OCP(=O)(O)O)c1CC(N)C(=O)O (centres unmarked) [ATPO],98.4 ± 3.3%
9,CC(=O)c1ccc2c(c1)N(CCCN(C)C)c1ccccc1S2 [Acepromazine maleate],90.7 ± 4.5%
10,CC(N)=O [Acetamide],96.1 ± 7.6%
11,CC(=O)Nc1nnc(S(N)(=O)=O)s1 [Acetazolamide],92.4 ± 4.0%
12,CC(=O)c1ccc(S(=O)(=O)NC(=O)NC2CCCCC2)cc1 [Acetohexamide],101.4 ± 13.1%
13,CC(=O)OC(C)C[N+](C)(C)C.[Cl-] (stereo not drawn) [Acetyl-beta-methylcholine chloride],91.4 ± 19.2%
14,CC(=O)Oc1ccccc1C(=O)O [Acetylsalicylic acid],102.5 ± 9.1%
15,CC(=O)SCC[N+](C)(C)C.[Cl-] [Acetylthiocholine chloride],95.7 ± 4.8%
16,CCN1C[C@]2(COC)[C@H](O)C[C@H](OC)[C@@]34[C@@H]5C[C@@]6(O)[C@H](OC(=O)c7ccccc7)[C@@H]5[C@@](OC(C)=O)([C@@H]([C@H](OC)[C@H]23)[C@@H]14)[C@@H](O)[C@@H]6OC [Aconitine],95.2 ± 4.4%
17,Nc1nc2c(ncn2COCCO)c(=O)[nH]1 [Acyclovir],99.9 ±13.7%
18,NCCCCN=C(N)N [Agmatine sulfate],97.6 ± 11.6%
19,CC(N)C(=O)OC(C)(C)Cc1ccc(Cl)cc1 (centres unmarked) [Alaproclate hydrochloride],104.8 ± 8.1%
20,CC(C)(C)NCC(O)c1ccc(O)c(CO)c1.CC(C)(C)NCC(O)c1ccc(O)c(CO)c1.O=S(=O)(O)O (centres unmarked) [Albuterol hemisulfate],97.4 ± 12.0%
21,COc1cc2nc(N(C)CCCNC(=O)C3CCCO3)nc(N)c2cc1OC (centres unmarked) [Alfuzosin hydrochloride],102.3 ± 4.9%
22,Oc1ncnc2[nH]ncc12 [Allopurinol],99.8 ± 7.2%
23,CN(C)c1nc(N(C)C)nc(N(C)C)n1 [Altretamine],99.1 ± 9.2%

row,SMILES,% 25 nM CA200645 binding
1,NC12CC3CC(CC(C3)C1)C2 [Amantadine hydrochloride],104.6 ± 3.5%
2,NCCCNCCSP(=O)(O)O [Amifostine],94.6 ± 2.0%
3,N=C(N)NC(=O)c1nc(Cl)c(N)nc1N [Amiloride hydrochloride],88.5 ± 23.0%
4,CN1[C@@H]2CC[C@H]1C[C@@H](OC(c1ccccc1)c1ccccc1N)C2 (some centres unmarked) [Aminobenztropine],92.7 ± 5.2%
5,NN=C(N)N.NN=C(N)N.O=S(=O)(O)O [Aminoguanidine hemisulfate],99.2 ± 8.4%
6,Cl.N=C(N)NN [Aminoguanidine hydrochloride],100.9 ± 6.1%
7,Cn1c(=O)c2[nH]cnc2n(C)c1=O.Cn1c(=O)c2[nH]cnc2n(C)c1=O.NCCN [Aminophylline ethylenediamine],89.2 ± 8.4%
8,Nc1nc(N)c2nc(CNc3ccc(C(=O)N[C@@H](CCC(=O)O)C(=O)O)cc3)cnc2n1 [Aminopterin],91.1 ± 3.5%
9,CCCCc1oc2ccccc2c1C(=O)c1cc(I)c(OCCN(CC)CC)c(I)c1 [Amiodarone hydrochloride],91.5 ± 10.5%
10,CCN1CCCC1CNC(=O)c1cc(S(=O)(=O)CC)c(N)cc1OC (centres unmarked) [Amisulpride],98.0 ± 5.3%
11,CN(C)CCC=C1c2ccccc2CCc2ccccc21 [Amitriptyline hydrochloride],83.6 ± 19.8%
12,Clc1ccc2c(c1)C(N1CCNCC1)=Nc1ccccc1O2 [Amoxapine],102.6 ± 1.7%
13,COc1cc(NS(C)(=O)=O)ccc1Nc1c2ccccc2nc2ccccc12 [Amsacrine hydrochloride],99.8 ± 8.3%
14,N=c1ccn2c(n1)O[C@H]1[C@H](O)[C@@H](CO)O[C@H]12 [Ancitabine hydrochloride],106.9 ± 5.2%
15,COc1ccc(C(=O)N2CCCC2=O)cc1 [Aniracetam],95.9 ± 3.1%
16,CCCC(CCC)C(=O)O[C@H]1C[C@H]2CC[C@@H](C1)[N+]2(C)C [Anisotropine methyl bromide],97.1 ± 12.3%
17,Cl.c1ccc(CN(CC2=NCCN2)c2ccccc2)cc1 [Antozoline hydrochloride],97.0 ± 6.0%
18,O=c1cc(-c2ccc(O)cc2)oc2cc(O)cc(O)c12 [Apigenin],41.8 ± 13.4%
19,CN1CCc2cccc3c2[C@H]1Cc1ccc(O)c(O)c1-3 [Apomorphine hydrochloride hemihydrate],95.0 ± 6.4%
20,CCN(CC)CCCN(c1ccccc1)C1Cc2ccccc2C1 [Aprindine hydrochloride],96.8 ± 13.3%
21,Nc1nc2c(ncn2[C@@H]2O[C@H](CO)[C@@H](O)[C@@H]2O)c(=O)[nH]1.O [Ara-G hydrate],96.8 ± 6.9%

# Same assay, conditions: % of 25 nM CA200645 binding in the presence of 10 μM compound, LOPAC full screen, A3AR CHO cells
row,SMILES,% Total CA200645 binding
1,"CNC(=O)[C@H]1O[C@@H](n2cnc3c(NCc4ccc(N)cc4)ncnc32)[C@H](O)[C@@H]1O [AB-MECA, reference compound]",49.5 ± 5.8%
2,"Nc1ccc(CCNc2ncnc3c2ncn3[C@@H]2O[C@H](CO)[C@@H](O)[C@H]2O)cc1 [APNEA, reference compound]",41.0 ± 7.2%

# Same assay, conditions: % of control wells (1% DMSO and 25 nM CA200645); compounds at 10 µM; whole live cells expressing the A3AR; mean ± SD, three experiments in duplicate
row,SMILES,% 25 nM CA200645 binding
1,CC1=C(C)C(=O)C(CCCCC#CCCCC#CCO)=C(C)C1=O [AA-861],69.6 ± 8.4%

# Same assay, conditions: compounds tested at 10 µM; % of control wells (1% DMSO and 25 nM CA200645); whole live cells expressing the A3AR; mean ± SD, three experiments in duplicate
row,SMILES,% 25 nM CA200645 binding
1,CCNC(=O)N1CCN(CCCC(c2ccc(F)cc2)c2ccc(F)cc2)CC1 [Amperozide hydrochloride],92.9 ± 0.6%
